Results published in patent publication US10710978B2, “STK4 inhibitors for treatment of hematologic malignancies” (Dana-Farber Cancer Institute, Inc., priority 2015, dated 2020).
Like-named read-outs stand apart in the source and are kept apart here.

Columns and labels:
Assay in all cases: KiNativ assay
Format in all cases: binding
MARK2 = MARK2 (Homo sapiens (Human), UniProt Q7KZI7); details: H929 live cell
Experimental: (§1) Biochemical IC50s of the compounds of the present disclosure against various kinases were measured in a KiNativ assay. Compounds were screened in duplicate at 10 μM in H929 live cell. IC50 was measured via Mass spectroscopy (MS).

CDK11, CDK8 = details: H929 live cell
Experimental: as §1

MST1, MST2 = details: H929 live cell
Experimental: as §1

SLK = SLK (Homo sapiens (Human), UniProt Q9H2G2); details: H929 live cell
Experimental: as §1

ACK = ACK (Homo sapiens (Human), UniProt Q07912); details: H929 live cell
Experimental: as §1

JAK3 domain2 = JAK3 domain2 (Homo sapiens (Human), UniProt P52333); details: H929 live cell
Experimental: as §1

PIP5K3 = PIP5K3 (Homo sapiens (Human), UniProt Q9Y2I7); details: H929 live cell
Experimental: as §1

p70S6K = p70S6K (Homo sapiens (Human), UniProt P23443); details: H929 live cell
Experimental: as §1

MAST3 = MAST3 (Homo sapiens (Human), UniProt O60307); details: H929 live cell
Experimental: as §1

STLK6 = STLK6 (Homo sapiens (Human), UniProt Q9C0K7); details: H929 live cell
Experimental: as §1

CDC2 = CDC2 (Homo sapiens (Human), UniProt P06493); details: H929 live cell
Experimental: as §1

TLK2 = TLK2 (Homo sapiens (Human), UniProt Q86UE8); details: H929 live cell
Experimental: as §1

NEK1 = NEK1 (Homo sapiens (Human), UniProt Q96PY6); details: H929 live cell
Experimental: as §1

PKR = PKR (Homo sapiens (Human), UniProt P19525); details: H929 live cell
Experimental: as §1

IKKe, TBK1 = details: H929 live cell
Experimental: as §1

RSK2 domain2 = RSK2 domain2 (Homo sapiens (Human), UniProt P51812); details: H929 live cell
Experimental: as §1

MARK4 = MARK4 (Homo sapiens (Human), UniProt Q96L34); details: H929 live cell, read-out: inhibition (10 μM)
Experimental: as §1

NDR1 = NDR1 (Homo sapiens (Human), UniProt Q15208); details: H929 live cell
Experimental: as §1

p38d, p38g = details: H929 live cell
Experimental: as §1

[1] = tested on: RSK1 domain1, RSK2 domain1, RSK3 domain1; details: H929 live cell
Experimental: as §1

PIK3CB = PIK3CB (Homo sapiens (Human), UniProt P42338); details: H929 live cell
Experimental: as §1

NDR2 = NDR2 (Homo sapiens (Human), UniProt Q9Y2H1); details: H929 live cell
Experimental: as §1

PITSLRE = details: H929 live cell
Experimental: as §1

MST2 = MST2 (Homo sapiens (Human), UniProt Q13188); details: H929 live cell
Experimental: as §1

IRAK4 = IRAK4 (Homo sapiens (Human), UniProt Q9NWZ3); details: H929 live cell
Experimental: as §1

CLK2 = CLK2 (Homo sapiens (Human), UniProt P49760); details: H929 live cell
Experimental: as §1

MLK3 = MLK3 (Homo sapiens (Human), UniProt Q16584); details: H929 live cell
Experimental: as §1

Erk1 = Erk1 (Homo sapiens (Human), UniProt P27361); details: H929 live cell
Experimental: as §1

ATR = ATR (Homo sapiens (Human), UniProt Q13535); details: H929 live cell
Experimental: as §1

MST3 = MST3 (Homo sapiens (Human), UniProt Q9Y6E0); details: H929 live cell
Experimental: as §1

MAPKAPK2, MAPKAPK3 = details: H929 live cell
Experimental: as §1

PIP4K2C = PIP4K2C (Homo sapiens (Human), UniProt Q8TBX8); details: H929 live cell
Experimental: as §1

MASTL = MASTL (Homo sapiens (Human), UniProt Q96GX5); details: H929 live cell
Experimental: as §1

PI4KB = PI4KB (Homo sapiens (Human), UniProt Q9UBF8); details: H929 live cell
Experimental: as §1

TLK2, sequence (Q86UE8 whole entry): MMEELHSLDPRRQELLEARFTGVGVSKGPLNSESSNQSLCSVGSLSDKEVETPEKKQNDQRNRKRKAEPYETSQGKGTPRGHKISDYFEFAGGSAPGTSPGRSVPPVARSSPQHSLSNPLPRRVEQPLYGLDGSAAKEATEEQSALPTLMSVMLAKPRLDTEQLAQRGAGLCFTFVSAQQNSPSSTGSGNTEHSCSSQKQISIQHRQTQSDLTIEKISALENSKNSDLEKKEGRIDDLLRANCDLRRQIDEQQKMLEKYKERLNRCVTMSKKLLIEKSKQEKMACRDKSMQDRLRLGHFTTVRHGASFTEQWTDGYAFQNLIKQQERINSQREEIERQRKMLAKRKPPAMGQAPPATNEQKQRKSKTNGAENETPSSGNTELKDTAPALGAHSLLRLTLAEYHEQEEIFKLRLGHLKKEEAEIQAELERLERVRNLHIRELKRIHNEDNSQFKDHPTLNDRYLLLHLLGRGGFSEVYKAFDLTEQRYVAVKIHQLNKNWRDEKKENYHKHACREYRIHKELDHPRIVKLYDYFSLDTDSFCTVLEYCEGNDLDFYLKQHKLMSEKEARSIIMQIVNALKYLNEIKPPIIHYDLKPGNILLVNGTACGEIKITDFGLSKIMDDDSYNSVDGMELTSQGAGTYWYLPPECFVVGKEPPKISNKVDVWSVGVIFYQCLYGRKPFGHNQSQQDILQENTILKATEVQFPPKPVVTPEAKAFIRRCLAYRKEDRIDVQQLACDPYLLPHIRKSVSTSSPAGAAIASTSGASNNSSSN
PKR, sequence (P19525 whole entry): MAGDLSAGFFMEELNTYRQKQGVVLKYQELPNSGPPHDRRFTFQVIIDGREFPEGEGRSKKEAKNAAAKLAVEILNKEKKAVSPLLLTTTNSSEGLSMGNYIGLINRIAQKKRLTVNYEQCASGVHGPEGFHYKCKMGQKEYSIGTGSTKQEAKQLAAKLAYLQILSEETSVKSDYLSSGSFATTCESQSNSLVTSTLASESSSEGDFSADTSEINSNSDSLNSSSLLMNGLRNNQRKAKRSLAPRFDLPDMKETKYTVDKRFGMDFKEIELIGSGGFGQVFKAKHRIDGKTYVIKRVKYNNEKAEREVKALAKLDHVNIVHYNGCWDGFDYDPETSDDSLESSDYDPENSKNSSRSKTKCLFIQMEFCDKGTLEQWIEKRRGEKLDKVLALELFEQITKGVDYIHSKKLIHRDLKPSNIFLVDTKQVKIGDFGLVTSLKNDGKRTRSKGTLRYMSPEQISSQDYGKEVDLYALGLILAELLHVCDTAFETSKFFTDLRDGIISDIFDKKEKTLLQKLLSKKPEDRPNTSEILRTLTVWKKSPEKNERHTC
MARK2, sequence (Q7KZI7 whole entry): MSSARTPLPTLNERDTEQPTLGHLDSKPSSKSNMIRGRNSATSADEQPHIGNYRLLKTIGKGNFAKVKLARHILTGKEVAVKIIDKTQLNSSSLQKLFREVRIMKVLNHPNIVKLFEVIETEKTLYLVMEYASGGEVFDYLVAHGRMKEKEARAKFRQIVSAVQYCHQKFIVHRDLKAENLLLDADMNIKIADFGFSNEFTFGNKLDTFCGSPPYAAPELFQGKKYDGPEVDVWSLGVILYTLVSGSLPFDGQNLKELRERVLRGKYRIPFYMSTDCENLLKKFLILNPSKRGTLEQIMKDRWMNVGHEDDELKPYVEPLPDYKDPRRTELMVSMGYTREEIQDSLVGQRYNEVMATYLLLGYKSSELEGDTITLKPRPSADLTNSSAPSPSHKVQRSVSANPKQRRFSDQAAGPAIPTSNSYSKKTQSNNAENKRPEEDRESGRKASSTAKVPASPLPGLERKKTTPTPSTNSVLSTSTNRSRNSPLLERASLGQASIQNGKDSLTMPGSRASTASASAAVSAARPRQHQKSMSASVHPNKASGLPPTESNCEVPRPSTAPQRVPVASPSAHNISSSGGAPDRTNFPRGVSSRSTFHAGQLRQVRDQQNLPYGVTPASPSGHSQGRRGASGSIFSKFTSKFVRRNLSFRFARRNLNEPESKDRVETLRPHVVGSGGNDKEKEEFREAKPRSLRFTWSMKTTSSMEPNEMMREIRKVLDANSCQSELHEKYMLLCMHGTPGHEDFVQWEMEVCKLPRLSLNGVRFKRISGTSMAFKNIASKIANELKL
PI4KB, sequence (Q9UBF8 whole entry): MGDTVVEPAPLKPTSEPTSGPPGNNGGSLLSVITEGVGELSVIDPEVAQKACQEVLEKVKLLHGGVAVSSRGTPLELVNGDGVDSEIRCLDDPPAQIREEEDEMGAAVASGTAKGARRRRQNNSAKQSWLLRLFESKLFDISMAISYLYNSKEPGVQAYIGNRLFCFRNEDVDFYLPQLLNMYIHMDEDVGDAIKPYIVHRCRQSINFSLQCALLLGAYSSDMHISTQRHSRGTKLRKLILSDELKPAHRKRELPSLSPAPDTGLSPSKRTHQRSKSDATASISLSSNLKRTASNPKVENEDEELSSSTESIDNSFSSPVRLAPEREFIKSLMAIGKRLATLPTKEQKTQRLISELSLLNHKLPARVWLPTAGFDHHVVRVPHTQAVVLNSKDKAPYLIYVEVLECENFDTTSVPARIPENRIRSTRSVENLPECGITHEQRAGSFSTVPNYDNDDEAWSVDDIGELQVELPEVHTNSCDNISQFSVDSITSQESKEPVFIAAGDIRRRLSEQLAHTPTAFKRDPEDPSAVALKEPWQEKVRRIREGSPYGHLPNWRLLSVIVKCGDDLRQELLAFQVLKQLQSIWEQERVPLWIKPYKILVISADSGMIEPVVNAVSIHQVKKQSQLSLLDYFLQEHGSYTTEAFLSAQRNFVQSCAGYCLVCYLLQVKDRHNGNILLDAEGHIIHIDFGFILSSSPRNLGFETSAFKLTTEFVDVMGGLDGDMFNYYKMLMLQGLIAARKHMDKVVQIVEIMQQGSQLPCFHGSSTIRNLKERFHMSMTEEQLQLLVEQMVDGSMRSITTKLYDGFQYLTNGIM
Erk1, sequence (P27361 whole entry): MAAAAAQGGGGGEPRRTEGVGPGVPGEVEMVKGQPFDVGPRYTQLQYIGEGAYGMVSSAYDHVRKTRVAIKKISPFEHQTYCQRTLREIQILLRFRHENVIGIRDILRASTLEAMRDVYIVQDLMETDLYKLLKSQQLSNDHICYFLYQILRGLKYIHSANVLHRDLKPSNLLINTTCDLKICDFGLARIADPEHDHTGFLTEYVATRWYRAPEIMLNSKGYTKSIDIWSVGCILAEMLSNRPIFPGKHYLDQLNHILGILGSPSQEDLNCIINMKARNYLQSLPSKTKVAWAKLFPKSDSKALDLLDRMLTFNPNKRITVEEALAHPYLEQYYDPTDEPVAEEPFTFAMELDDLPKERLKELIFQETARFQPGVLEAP
NDR1, sequence (Q15208 whole entry): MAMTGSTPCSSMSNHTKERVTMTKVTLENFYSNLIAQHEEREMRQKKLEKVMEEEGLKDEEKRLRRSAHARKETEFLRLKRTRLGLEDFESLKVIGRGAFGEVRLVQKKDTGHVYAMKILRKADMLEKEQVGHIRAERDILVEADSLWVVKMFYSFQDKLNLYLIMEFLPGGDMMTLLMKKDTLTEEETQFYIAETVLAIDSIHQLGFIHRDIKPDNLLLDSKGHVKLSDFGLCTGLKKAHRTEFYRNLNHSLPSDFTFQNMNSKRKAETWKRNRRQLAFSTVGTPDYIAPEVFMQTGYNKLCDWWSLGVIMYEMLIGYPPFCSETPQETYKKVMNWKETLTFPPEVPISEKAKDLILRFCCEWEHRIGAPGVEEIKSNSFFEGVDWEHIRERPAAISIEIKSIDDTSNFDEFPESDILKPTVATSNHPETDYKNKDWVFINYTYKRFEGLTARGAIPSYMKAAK
NEK1, sequence (Q96PY6 whole entry): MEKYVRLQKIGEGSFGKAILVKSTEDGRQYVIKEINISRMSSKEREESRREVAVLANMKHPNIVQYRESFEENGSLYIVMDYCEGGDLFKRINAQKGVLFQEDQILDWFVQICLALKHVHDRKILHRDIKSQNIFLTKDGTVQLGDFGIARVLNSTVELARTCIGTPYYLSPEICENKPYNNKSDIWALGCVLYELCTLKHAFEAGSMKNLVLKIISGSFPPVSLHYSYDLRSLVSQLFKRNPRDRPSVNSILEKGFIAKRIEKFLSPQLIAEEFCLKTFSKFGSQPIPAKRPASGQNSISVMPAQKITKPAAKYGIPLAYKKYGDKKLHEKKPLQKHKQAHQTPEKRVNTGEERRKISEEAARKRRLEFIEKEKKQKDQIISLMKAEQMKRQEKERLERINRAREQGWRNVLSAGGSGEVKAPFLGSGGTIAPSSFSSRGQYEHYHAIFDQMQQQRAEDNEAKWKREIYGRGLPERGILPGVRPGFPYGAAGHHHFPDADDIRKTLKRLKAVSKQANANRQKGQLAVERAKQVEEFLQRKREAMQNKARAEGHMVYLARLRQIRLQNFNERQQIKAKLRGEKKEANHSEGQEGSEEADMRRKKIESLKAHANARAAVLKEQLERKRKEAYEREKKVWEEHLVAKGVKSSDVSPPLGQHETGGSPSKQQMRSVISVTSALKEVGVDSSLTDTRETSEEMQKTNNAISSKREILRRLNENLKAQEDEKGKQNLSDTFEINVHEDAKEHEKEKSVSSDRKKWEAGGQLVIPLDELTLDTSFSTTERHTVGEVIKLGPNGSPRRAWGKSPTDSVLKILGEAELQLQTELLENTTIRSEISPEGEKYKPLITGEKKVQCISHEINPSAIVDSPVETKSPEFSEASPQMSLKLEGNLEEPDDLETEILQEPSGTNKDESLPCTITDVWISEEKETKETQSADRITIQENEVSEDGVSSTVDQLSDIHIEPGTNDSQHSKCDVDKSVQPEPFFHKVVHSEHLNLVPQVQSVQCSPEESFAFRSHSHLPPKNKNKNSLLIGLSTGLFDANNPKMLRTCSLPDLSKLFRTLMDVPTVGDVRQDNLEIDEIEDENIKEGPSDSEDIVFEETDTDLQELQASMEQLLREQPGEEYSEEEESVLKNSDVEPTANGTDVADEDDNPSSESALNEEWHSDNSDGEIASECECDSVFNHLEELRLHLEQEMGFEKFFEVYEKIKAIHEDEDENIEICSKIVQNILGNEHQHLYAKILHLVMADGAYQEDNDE

With `Nc1ncc(-c2cccc3ncsc23)cc1-c1ccc2c(c1)CCNC2=O` [Compound I-13, 6-(2-amino-5-(benzo[d]thiazol-7-yl)pyridin-3-yl)-3,4-dihydroisoquinolin-1(2H)-one] the inhibition at 10 µM (MARK2; read-out: % inhibition (range)) was 0%, the inhibition at 10 µM (MARK2; read-out: inhibition (10 μM)) was 32.3% and the “% inhibition (range)” value (CDK11, CDK8; 10 μM) was 50-75%. The “inhibition (10 μM)” value (CDK11, CDK8) was 59.3%, the “% inhibition (range)” value (MST1, MST2; 10 μM) was 75-90% and the “inhibition (10 μM)” value (MST1, MST2) was 89.4%. It also gave an inhibition at 10 µM (SLK; read-out: % inhibition (range)) of 35 to 50%, an inhibition at 10 µM (SLK; read-out: inhibition (10 μM)) of 49.2% and an inhibition at 10 µM (ACK; read-out: % inhibition (range)) of 0%. For the same compound, the inhibition at 10 µM (ACK; read-out: inhibition (10 μM)) was 23.3%, the inhibition at 10 µM (JAK3 domain2; read-out: % inhibition (range)) was 0% and the inhibition at 10 µM (JAK3 domain2; read-out: inhibition (10 μM)) was -12.8%. The inhibition at 10 µM (PIP5K3; read-out: % inhibition (range)) was over 90%, the inhibition at 10 µM (PIP5K3; read-out: inhibition (10 μM)) was 92.5% and the inhibition at 10 µM (p70S6K; read-out: % inhibition (range)) was 0%. It also gave an inhibition at 10 µM (p70S6K; read-out: inhibition (10 μM)) of -14.3%, an inhibition at 10 µM (MAST3; read-out: % inhibition (range)) of 0% and an inhibition at 10 µM (MAST3; read-out: inhibition (10 μM)) of 22%. For the same compound, the inhibition at 10 µM (STLK6; read-out: % inhibition (range)) was 0%, the inhibition at 10 µM (STLK6; read-out: inhibition (10 μM)) was -10.8% and the inhibition at 10 µM (CDC2; read-out: % inhibition (range)) was 0%. The inhibition at 10 µM (CDC2; read-out: inhibition (10 μM)) was -15%, the inhibition at 10 µM (TLK2; read-out: % inhibition (range)) was 0% and the inhibition at 10 µM (TLK2; read-out: inhibition (10 μM)) was 12.6%. The inhibition at 10 µM (NEK1; read-out: % inhibition (range)) was 0%, the inhibition at 10 µM (NEK1; read-out: inhibition (10 μM)) was 6.2% and the inhibition at 10 µM (PKR; read-out: % inhibition (range)) was 0%. For the same compound, the inhibition at 10 µM (PKR; read-out: inhibition (10 μM)) was -21.7%, the “% inhibition (range)” value (IKKe, TBK1; 10 μM) was 0.0% and the “inhibition (10 μM)” value (IKKe, TBK1) was −9.9%. The inhibition at 10 µM (RSK2 domain2; read-out: % inhibition (range)) was 0%, the inhibition at 10 µM (RSK2 domain2; read-out: inhibition (10 μM)) was 3.8% and the inhibition at 10 µM (MARK4) was 39.8%. For the same compound, the inhibition at 10 µM (NDR1; read-out: % inhibition (range)) was 0%, the inhibition at 10 µM (NDR1; read-out: inhibition (10 μM)) was 13% and the “% inhibition (range)” value (p38d, p38g; 10 μM) was 0.0%. For the same compound, the “inhibition (10 μM)” value (p38d, p38g) was −43.7%, the “% inhibition (range)” value ([1]; 10 μM) was 0.0% and the “inhibition (10 μM)” value [1] was 13.1%. It also gave an inhibition at 10 µM (PIK3CB; read-out: % inhibition (range)) of 0%, an inhibition at 10 µM (PIK3CB; read-out: inhibition (10 μM)) of 23.1% and an inhibition at 10 µM (NDR2; read-out: % inhibition (range)) of 0%. For the same compound, the inhibition at 10 µM (NDR2; read-out: inhibition (10 μM)) was 4%, the “% inhibition (range)” value (PITSLRE; 10 μM) was 0.0% and the “inhibition (10 μM)” value (PITSLRE) was −3.6%. For the same compound, the inhibition at 10 µM (MST2; read-out: % inhibition (range)) was 75 to 90%, the inhibition at 10 µM (MST2; read-out: inhibition (10 μM)) was 85.5% and the inhibition at 10 µM (IRAK4; read-out: % inhibition (range)) was 0%. The inhibition at 10 µM (IRAK4; read-out: inhibition (10 μM)) was -6.4%, the inhibition at 10 µM (CLK2; read-out: % inhibition (range)) was 0% and the inhibition at 10 µM (CLK2; read-out:) was 19.1%. It also gave an inhibition at 10 µM (MLK3; read-out: % inhibition (range)) of 0%, an inhibition at 10 µM (MLK3; read-out: inhibition (10 μM)) of -3.9% and an inhibition at 10 µM (Erk1; read-out: % inhibition (range)) of 75 to 90%. For the same compound, the inhibition at 10 µM (Erk1; read-out: inhibition (10 μM)) was 75%, the inhibition at 10 µM (ATR; read-out: % inhibition (range)) was 0% and the inhibition at 10 µM (ATR; read-out: inhibition (10 μM)) was -16.1%. For the same compound, the inhibition at 10 µM (MST3; read-out: % inhibition (range)) was 0%, the inhibition at 10 µM (MST3; read-out: inhibition (10 μM)) was -1.8% and the “% inhibition (range)” value (MAPKAPK2, MAPKAPK3; 10 μM) was 0.0%. The “inhibition (10 μM)” value (MAPKAPK2, MAPKAPK3) was 2.5%, the inhibition at 10 µM (PIP4K2C; read-out: % inhibition (range)) was 35 to 50% and the inhibition at 10 µM (PIP4K2C; read-out: inhibition (10 μM)) was 42%. For the same compound, the inhibition at 10 µM (MASTL; read-out: % inhibition (range)) was 0%, the inhibition at 10 µM (MASTL; read-out: inhibition (10 μM)) was -2% and the inhibition at 10 µM (PI4KB; read-out: % inhibition (range)) was 0%. The inhibition at 10 µM (PI4KB; read-out: inhibition (10 μM)) was 34.8%.
